# Experimental data published in the kinase profiling compilation of Christmann-Franck et al. (2016).
# How the values were obtained:
# Experiment in all cases: KINOMEscan competition binding
# Details in all cases: compound 10.0 µM
# NEK9 (human) = NEK9 (human) (UniProt Q8TD19)
# CDC42BPA (human) = CDC42BPA (human) (UniProt Q5VT25)
# MYO3A (human) = MYO3A (human) (UniProt Q8NEV4)
# AXL (human) = AXL (human) (UniProt P30530)
# CLK3 (human) = CLK3 (human) (UniProt P49761)
# MAP4K2 (human) = MAP4K2 (human) (UniProt Q12851)
# MARK1 (human) = MARK1 (human) (UniProt Q9P0L2)
# PRKACB (human) = PRKACB (human) (UniProt P22694)
# STK25 (human) = STK25 (human) (UniProt O00506)
# EPHA3 (human) = EPHA3 (human) (UniProt P29320)
# ROS1 (human) = ROS1 (human) (UniProt P08922)
# ZAP70 (human) = ZAP70 (human) (UniProt P43403)
# CAMK2D (human) = CAMK2D (human) (UniProt Q13557)
# SRPK2 (human) = SRPK2 (human) (UniProt P78362)
# LATS2 (human) = LATS2 (human) (UniProt Q9NRM7)
# TGFBR2 (human) = TGFBR2 (human) (UniProt P37173)
# NEK6 (human) = NEK6 (human) (UniProt Q9HC98)
# STK38L (human) = STK38L (human) (UniProt Q9Y2H1)
# SIK2 (human) = SIK2 (human) (UniProt Q9H0K1)
# GSK3A (human) = GSK3A (human) (UniProt P49840)
# CAMKK1 (human) = CAMKK1 (human) (UniProt Q8N5S9)
# STK16 (human) = STK16 (human) (UniProt O75716)
# ALK (human) = ALK (human) (UniProt Q9UM73)
# PRKX (human) = PRKX (human) (UniProt P51817)
# INSRR (human) = INSRR (human) (UniProt P14616)
# CDK16 (human) = CDK16 (human) (UniProt Q00536)
# MARK4 (human) = MARK4 (human) (UniProt Q96L34)
# [1] = molecular target: JAK1 JH2 pseudokinase (human) (UniProt P23458)
# PRKAA1 (human) = PRKAA1 (human) (UniProt Q13131)
# MARK2 (human) = MARK2 (human) (UniProt Q7KZI7)
# CLK1 (human) = CLK1 (human) (UniProt P49759)
# CSNK1A1L (human) = CSNK1A1L (human) (UniProt Q8N752)
# SLK (human) = SLK (human) (UniProt Q9H2G2)
# IKBKE (human) = IKBKE (human) (UniProt Q14164)
# SYK (human) = SYK (human) (UniProt P43405)
# MST1R (human) = MST1R (human) (UniProt Q04912)
# Chain of ZAP70 (human) (P43403 whole entry, looked up): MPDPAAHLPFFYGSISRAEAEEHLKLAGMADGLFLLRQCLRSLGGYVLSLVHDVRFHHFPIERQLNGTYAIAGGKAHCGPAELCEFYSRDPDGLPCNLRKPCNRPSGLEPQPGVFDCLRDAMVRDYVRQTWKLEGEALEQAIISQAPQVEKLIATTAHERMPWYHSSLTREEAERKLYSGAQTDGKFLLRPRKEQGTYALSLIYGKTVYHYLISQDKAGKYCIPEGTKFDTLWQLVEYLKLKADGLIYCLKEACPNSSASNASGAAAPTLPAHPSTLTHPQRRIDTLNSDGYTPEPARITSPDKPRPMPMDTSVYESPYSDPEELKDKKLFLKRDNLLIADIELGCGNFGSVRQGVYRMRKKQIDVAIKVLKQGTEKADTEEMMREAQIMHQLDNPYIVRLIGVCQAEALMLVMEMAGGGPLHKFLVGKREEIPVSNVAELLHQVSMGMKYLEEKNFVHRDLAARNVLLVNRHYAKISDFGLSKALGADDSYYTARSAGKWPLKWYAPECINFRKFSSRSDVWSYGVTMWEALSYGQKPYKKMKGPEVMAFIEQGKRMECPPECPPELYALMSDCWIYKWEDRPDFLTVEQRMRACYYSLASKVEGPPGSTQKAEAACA
# Chain of MARK4 (human) (Q96L34 whole entry, looked up): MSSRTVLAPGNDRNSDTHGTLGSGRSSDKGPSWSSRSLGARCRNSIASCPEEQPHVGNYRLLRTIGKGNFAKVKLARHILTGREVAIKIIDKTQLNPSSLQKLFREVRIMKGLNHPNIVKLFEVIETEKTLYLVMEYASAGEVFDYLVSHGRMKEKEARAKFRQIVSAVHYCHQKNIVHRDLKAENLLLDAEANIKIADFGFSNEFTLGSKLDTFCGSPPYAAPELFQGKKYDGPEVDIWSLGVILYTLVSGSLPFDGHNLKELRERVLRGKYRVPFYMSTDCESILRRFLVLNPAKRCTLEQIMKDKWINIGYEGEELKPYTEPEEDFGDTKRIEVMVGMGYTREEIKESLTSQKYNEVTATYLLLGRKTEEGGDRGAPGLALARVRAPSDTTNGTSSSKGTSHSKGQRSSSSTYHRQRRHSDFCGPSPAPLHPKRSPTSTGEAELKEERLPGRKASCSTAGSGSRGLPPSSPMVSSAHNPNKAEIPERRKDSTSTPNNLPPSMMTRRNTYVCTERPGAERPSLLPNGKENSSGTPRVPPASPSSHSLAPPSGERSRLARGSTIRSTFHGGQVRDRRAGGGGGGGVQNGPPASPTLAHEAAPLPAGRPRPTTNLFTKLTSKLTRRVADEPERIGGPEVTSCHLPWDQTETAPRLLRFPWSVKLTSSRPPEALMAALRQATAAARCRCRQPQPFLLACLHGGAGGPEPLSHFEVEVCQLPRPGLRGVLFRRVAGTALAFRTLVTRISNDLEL
# Chain of CDC42BPA (human) (Q5VT25 whole entry, looked up): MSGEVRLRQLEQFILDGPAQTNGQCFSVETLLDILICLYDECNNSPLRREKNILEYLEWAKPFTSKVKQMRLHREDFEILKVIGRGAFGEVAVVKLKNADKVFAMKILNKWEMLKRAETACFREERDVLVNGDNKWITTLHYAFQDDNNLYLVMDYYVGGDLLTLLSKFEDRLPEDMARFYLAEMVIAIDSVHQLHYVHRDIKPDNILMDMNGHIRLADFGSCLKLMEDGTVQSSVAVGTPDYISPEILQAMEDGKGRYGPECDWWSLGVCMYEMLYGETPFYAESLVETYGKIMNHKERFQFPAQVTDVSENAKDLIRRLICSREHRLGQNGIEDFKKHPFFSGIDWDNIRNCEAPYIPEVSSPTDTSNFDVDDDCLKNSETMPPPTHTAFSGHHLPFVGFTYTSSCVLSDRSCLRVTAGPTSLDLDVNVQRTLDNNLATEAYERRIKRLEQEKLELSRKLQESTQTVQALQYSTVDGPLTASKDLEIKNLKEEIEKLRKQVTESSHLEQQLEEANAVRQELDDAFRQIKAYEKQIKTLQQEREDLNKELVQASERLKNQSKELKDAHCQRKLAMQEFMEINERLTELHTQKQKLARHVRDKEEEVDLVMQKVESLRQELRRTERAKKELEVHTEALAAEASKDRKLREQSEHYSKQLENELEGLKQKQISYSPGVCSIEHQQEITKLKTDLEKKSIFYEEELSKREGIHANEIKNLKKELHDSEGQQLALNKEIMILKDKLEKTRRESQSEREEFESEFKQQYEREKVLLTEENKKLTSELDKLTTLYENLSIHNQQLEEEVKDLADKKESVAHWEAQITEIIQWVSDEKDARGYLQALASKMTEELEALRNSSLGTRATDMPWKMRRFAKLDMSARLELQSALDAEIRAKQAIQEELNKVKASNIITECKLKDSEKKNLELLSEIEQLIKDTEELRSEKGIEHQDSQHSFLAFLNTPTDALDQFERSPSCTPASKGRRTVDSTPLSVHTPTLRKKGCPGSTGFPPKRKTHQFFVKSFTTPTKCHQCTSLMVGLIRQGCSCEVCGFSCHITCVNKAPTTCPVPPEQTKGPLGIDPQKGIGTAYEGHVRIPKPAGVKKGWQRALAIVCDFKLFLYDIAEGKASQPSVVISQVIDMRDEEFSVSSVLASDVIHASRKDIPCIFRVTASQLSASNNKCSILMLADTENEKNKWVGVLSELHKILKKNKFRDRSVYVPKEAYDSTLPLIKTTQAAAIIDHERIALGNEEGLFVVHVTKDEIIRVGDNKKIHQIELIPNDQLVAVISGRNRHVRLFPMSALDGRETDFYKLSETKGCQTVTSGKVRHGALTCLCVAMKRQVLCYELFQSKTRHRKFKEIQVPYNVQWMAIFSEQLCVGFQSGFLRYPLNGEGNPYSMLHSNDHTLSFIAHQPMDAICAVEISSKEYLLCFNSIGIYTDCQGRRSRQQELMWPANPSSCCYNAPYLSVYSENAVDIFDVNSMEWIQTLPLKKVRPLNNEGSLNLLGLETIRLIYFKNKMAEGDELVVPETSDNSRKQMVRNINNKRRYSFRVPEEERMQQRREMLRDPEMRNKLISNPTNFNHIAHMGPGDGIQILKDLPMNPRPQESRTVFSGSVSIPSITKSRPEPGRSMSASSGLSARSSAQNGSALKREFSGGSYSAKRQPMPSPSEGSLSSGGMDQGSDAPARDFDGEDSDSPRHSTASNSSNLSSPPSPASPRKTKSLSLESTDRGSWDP
# Chain of MYO3A (human) (Q8NEV4 whole entry, looked up): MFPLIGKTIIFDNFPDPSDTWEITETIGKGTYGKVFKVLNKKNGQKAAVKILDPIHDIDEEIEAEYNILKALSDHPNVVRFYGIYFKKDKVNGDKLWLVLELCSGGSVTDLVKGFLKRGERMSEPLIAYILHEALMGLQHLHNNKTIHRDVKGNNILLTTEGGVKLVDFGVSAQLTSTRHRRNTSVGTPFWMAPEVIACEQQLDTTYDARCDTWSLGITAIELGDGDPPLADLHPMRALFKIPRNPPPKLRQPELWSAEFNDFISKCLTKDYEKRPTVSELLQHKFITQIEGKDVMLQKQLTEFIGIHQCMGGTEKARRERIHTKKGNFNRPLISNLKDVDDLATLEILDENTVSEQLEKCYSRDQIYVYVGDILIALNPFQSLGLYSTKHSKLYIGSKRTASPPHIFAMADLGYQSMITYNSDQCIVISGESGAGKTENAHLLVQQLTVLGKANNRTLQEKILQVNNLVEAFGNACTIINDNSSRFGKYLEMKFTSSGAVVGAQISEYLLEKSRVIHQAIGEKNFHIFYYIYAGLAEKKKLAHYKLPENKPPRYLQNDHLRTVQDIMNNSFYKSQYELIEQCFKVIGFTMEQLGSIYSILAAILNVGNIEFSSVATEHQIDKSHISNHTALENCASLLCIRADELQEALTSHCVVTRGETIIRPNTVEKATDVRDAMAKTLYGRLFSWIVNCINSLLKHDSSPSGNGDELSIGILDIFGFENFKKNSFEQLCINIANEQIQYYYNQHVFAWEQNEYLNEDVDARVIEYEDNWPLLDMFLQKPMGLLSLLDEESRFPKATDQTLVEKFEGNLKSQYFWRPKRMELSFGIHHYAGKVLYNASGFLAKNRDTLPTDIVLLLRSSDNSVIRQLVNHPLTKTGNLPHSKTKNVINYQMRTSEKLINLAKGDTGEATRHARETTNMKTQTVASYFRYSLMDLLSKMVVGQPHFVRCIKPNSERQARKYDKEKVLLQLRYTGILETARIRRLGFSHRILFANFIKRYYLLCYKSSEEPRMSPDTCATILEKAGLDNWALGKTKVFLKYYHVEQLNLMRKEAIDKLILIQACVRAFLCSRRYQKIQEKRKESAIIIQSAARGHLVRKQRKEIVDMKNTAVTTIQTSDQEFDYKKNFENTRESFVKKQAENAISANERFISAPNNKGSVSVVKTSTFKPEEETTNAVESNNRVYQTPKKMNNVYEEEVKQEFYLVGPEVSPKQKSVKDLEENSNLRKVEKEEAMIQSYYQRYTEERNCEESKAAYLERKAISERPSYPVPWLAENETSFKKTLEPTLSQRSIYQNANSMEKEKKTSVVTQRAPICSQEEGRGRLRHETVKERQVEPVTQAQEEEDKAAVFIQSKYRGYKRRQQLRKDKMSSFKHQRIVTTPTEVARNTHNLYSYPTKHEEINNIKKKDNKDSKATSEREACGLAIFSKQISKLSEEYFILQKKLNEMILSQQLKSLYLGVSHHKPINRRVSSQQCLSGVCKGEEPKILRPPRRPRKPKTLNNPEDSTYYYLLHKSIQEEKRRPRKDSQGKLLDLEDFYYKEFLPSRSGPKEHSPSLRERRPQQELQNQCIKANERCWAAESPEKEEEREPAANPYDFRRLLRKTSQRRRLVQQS
# Chain of NEK6 (human) (Q9HC98 whole entry, looked up): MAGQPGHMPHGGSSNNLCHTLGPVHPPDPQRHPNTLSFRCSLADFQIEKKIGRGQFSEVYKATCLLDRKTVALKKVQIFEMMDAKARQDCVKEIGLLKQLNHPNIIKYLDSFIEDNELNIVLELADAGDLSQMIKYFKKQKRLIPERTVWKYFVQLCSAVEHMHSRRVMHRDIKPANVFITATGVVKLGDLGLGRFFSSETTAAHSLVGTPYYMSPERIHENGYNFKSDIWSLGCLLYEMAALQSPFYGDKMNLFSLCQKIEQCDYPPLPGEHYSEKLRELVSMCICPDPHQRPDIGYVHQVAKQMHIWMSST
smiles,measurement,setting,value
O=C(O)c1ccc(Nc2ncc3c(n2)-c2ccc(Cl)cc2C(c2c(F)cccc2F)=NC3)cc1,"kinase still bound, per cent of control",NEK9 (human),100%
same,"kinase still bound, per cent of control",CDC42BPA (human),84%
same,"kinase still bound, per cent of control",MYO3A (human),80%
same,"kinase still bound, per cent of control",AXL (human),4.4%
same,"kinase still bound, per cent of control",CLK3 (human),14%
same,"kinase still bound, per cent of control",MAP4K2 (human),88%
same,"kinase still bound, per cent of control",MARK1 (human),100%
same,"kinase still bound, per cent of control",PRKACB (human),58%
same,"kinase still bound, per cent of control",STK25 (human),56%
same,"kinase still bound, per cent of control",EPHA3 (human),15%
same,"kinase still bound, per cent of control",ROS1 (human),23%
same,"kinase still bound, per cent of control",ZAP70 (human),100%
same,"kinase still bound, per cent of control",CAMK2D (human),95%
same,"kinase still bound, per cent of control",SRPK2 (human),80%
same,"kinase still bound, per cent of control",LATS2 (human),72%
same,"kinase still bound, per cent of control",TGFBR2 (human),58%
same,"kinase still bound, per cent of control",NEK6 (human),100%
same,"kinase still bound, per cent of control",STK38L (human),100%
same,"kinase still bound, per cent of control",SIK2 (human),49%
same,"kinase still bound, per cent of control",GSK3A (human),100%
same,"kinase still bound, per cent of control",CAMKK1 (human),89%
same,"kinase still bound, per cent of control",STK16 (human),30%
same,"kinase still bound, per cent of control",ALK (human),48%
same,"kinase still bound, per cent of control",PRKX (human),75%
same,"kinase still bound, per cent of control",INSRR (human),100%
same,"kinase still bound, per cent of control",CDK16 (human),100%
same,"kinase still bound, per cent of control",MARK4 (human),100%
same,"kinase still bound, per cent of control",[1],80%
same,"kinase still bound, per cent of control",PRKAA1 (human),38%
same,"kinase still bound, per cent of control",MARK2 (human),93%
same,"kinase still bound, per cent of control",CLK1 (human),63%
same,"kinase still bound, per cent of control",CSNK1A1L (human),97%
same,"kinase still bound, per cent of control",SLK (human),80%
same,"kinase still bound, per cent of control",IKBKE (human),68%
same,"kinase still bound, per cent of control",SYK (human),78%
same,"kinase still bound, per cent of control",MST1R (human),92%
